Tested on: MV-4-11 cells
Test: Gene expression microarray analysis (Affymetrix PrimeView) and GSEA
Format: cell-based, human
Set-up: RFU PODN (11730768_x_at) / Fold change /veh PODN (11730768_x_at) / RFU LINC00158 (11744669_a_at) / Fold change /veh LINC00158 (11744669_a_at) / RFU DUSP10 (11751237_a_at) / Fold change /veh DUSP10 (11751237_a_at) / RFU ID3 (11757404_x_at) / Fold change /veh ID3 (11757404_x_at) / RFU PLEKHG5 (11737974_s_at) / Fold change /veh PLEKHG5 (11737974_s_at) / RFU LRRC4B (11730491_at) / Fold change /veh LRRC4B (11730491_at) / RFU GIMAP4 (11747438_a_at) / Fold change /veh GIMAP4 (11747438_a_at) / RFU KRT8 (11758183_x_at) / Fold change /veh KRT8 (11758183_x_at) / RFU CNN1 (11734310_a_at) / Fold change /veh CNN1 (11734310_a_at) / RFU VPS37D (11726825_at) / Fold change /veh VPS37D (11726825_at) / RFU C10orf10 (11716522_x_at) / Fold change /veh C10orf10 (11716522_x_at) / RFU KIR2DL2 /// KIR2DL4 /// KIR2DL5A /// KIR2DL5B /// KIR2DS1 /// KIR2DS2 /// KIR2DS3 /// KIR2DS4 /// KIR3DL3 /// KIR3DL3 /// KIR3DS1 (11738374_at) / Fold change /veh KIR2DL2 /// KIR2DL4 /// KIR2DL5A /// KIR2DL5B /// KIR2DS1 /// KIR2DS2 /// KIR2DS3 /// KIR2DS4 /// KIR3DL3 /// KIR3DL3 /// KIR3DS1 (11738374_at) / RFU C1QL1 (11718748_at) / Fold change /veh C1QL1 (11718748_at) / RFU TMPRSS4 (11747572_a_at) / Fold change /veh TMPRSS4 (11747572_a_at) / RFU HAMP (11756126_x_at) / Fold change /veh HAMP (11756126_x_at) / RFU RNFT2 (11725882_a_at) / Fold change /veh RNFT2 (11725882_a_at) / RFU NR4A2 (11747474_a_at) / Fold change /veh NR4A2 (11747474_a_at) / RFU ABCC12 (11746883_a_at) / Fold change /veh ABCC12 (11746883_a_at) / RFU TMEM136 (11760407_x_at) / Fold change /veh TMEM136 (11760407_x_at) / RFU CLDN22 /// WWC2 (11732394_at) / Fold change /veh CLDN22 /// WWC2 (11732394_at) / RFU HLA-DPB1 (11760878_x_at) / Fold change /veh HLA-DPB1 (11760878_x_at) / RFU SPINT1 (11716480_a_at) / Fold change /veh SPINT1 (11716480_a_at) / RFU GAP43 (11754022_s_at) / Fold change /veh GAP43 (11754022_s_at) / RFU A4GNT (11735810_at) / Fold change /veh A4GNT (11735810_at) / RFU PRB3 (11715151_x_at) / Fold change /veh PRB3 (11715151_x_at) / RFU TUBB4B (11761932_at) / Fold change /veh TUBB4B (11761932_at) / RFU CAPN14 (11732068_a_at) / Fold change /veh CAPN14 (11732068_a_at) / RFU TMCC2 (11721928_a_at) / Fold change /veh TMCC2 (11721928_a_at) / RFU IRGQ (11745062_a_at) / Fold change /veh IRGQ (11745062_a_at) / RFU FAM174B (11720279_a_at) / Fold change /veh FAM174B (11720279_a_at) / RFU TMPRSS4 (11748680_a_at) / Fold change /veh TMPRSS4 (11748680_a_at) / RFU FAM212B (11763350_a_at) / Fold change /veh FAM212B (11763350_a_at) / RFU PLEKHG5 (11743358_a_at) / Fold change /veh PLEKHG5 (11743358_a_at) / RFU ZSCAN30 (11745921_a_at) / Fold change /veh ZSCAN30 (11745921_a_at) / RFU CMKLR1 (11741424_a_at) / Fold change /veh CMKLR1 (11741424_a_at) / RFU LOC101060620 /// MAPK8IP1 (11723275_at) / Fold change /veh LOC101060620 /// MAPK8IP1 (11723275_at) / RFU SPTSSB (11747773_x_at) / Fold change /veh SPTSSB (11747773_x_at) / RFU PRSS12 (11739890_at) / Fold change /veh PRSS12 (11739890_at) / RFU BIN1 (11741810_x_at) / Fold change /veh BIN1 (11741810_x_at) / RFU WNT11 (11732464_a_at) / Fold change /veh WNT11 (11732464_a_at) / RFU C10orf10 (11716521_a_at) / Fold change /veh C10orf10 (11716521_a_at) / RFU C5orf56 (11738089_at) / Fold change /veh C5orf56 (11738089_at) / RFU CYB561 (11721691_x_at) / Fold change /veh CYB561 (11721691_x_at) / RFU ANKRD19P (11752326_a_at) / Fold change /veh ANKRD19P (11752326_a_at) / RFU OR2T12 /// OR2T33 /// OR2T8 (11738714_s_at) / Fold change /veh OR2T12 /// OR2T33 /// OR2T8 (11738714_s_at) / RFU VCAN (11748164_a_at) / Fold change /veh VCAN (11748164_a_at) / RFU JSRP1 (11732532_at) / Fold change /veh JSRP1 (11732532_at) / RFU KRTAP10-11 (11738290_x_at) / Fold change /veh KRTAP10-11 (11738290_x_at) / RFU MYO3A (11730013_a_at) / Fold change /veh MYO3A (11730013_a_at) / RFU EBF3 (11725865_a_at) / Fold change /veh EBF3 (11725865_a_at) / RFU CAMK2N1 (11719241_x_at) / Fold change /veh CAMK2N1 (11719241_x_at) / RFU C5orf56 (11738088_a_at) / Fold change /veh C5orf56 (11738088_a_at) / RFU OLFML3 (11715873_a_at) / Fold change /veh OLFML3 (11715873_a_at) / RFU LOC100653217 /// NTM (11731650_a_at) / Fold change /veh LOC100653217 /// NTM (11731650_a_at) / RFU MAPK11 (11762145_a_at) / Fold change /veh MAPK11 (11762145_a_at) / RFU FIZ1 (11724087_x_at) / Fold change /veh FIZ1 (11724087_x_at) / RFU OASL (11726364_x_at) / Fold change /veh OASL (11726364_x_at) / RFU SOX15 (11748057_x_at) / Fold change /veh SOX15 (11748057_x_at) / RFU CD79A (11719716_a_at) / Fold change /veh CD79A (11719716_a_at) / RFU HIST1H1D (11736915_at) / Fold change /veh HIST1H1D (11736915_at) / RFU CASKIN2 (11723855_a_at) / Fold change /veh CASKIN2 (11723855_a_at) / RFU LOC730098 (11760151_x_at) / Fold change /veh LOC730098 (11760151_x_at) / RFU OR4N2 (11742367_at) / Fold change /veh OR4N2 (11742367_at) / RFU PRRT2 (11749266_a_at) / Fold change /veh PRRT2 (11749266_a_at) / RFU SNX32 (11753110_a_at) / Fold change /veh SNX32 (11753110_a_at) / RFU CDHR5 (11726645_a_at) / Fold change /veh CDHR5 (11726645_a_at) / RFU RCAN1 (11760418_a_at) / Fold change /veh RCAN1 (11760418_a_at) / RFU FAM167A (11723789_a_at) / Fold change /veh FAM167A (11723789_a_at) / RFU FAM26E (11764081_at) / Fold change /veh FAM26E (11764081_at) / RFU ISYNA1 (11749810_s_at) / Fold change /veh ISYNA1 (11749810_s_at) / RFU ACY1 (11761880_at) / Fold change /veh ACY1 (11761880_at) / RFU 11764098_at / Fold change /veh 11764098_at / RFU SAMD14 (11745864_x_at) / Fold change /veh SAMD14 (11745864_x_at) / RFU NPB (11741838_a_at) / Fold change /veh NPB (11741838_a_at) / RFU TMPRSS6 (11731388_a_at) / Fold change /veh TMPRSS6 (11731388_a_at) / RFU KRTAP10-2 (11738614_at) / Fold change /veh KRTAP10-2 (11738614_at) / RFU ARHGAP8 /// PRR5-ARHGAP8 (11727945_x_at) / Fold change /veh ARHGAP8 /// PRR5-ARHGAP8 (11727945_x_at) / RFU KRTAP5-7 /// NADSYN1 (11734609_at) / Fold change /veh KRTAP5-7 /// NADSYN1 (11734609_at) / RFU RASL12 (11751679_a_at) / Fold change /veh RASL12 (11751679_a_at) / RFU CDKN2B (11736163_a_at) / Fold change /veh CDKN2B (11736163_a_at) / RFU PRF1 (11729649_at) / Fold change /veh PRF1 (11729649_at) / RFU, ZNF638 /// ZNF638-IT1 / Fold change vs veh, ZNF638 /// ZNF638-IT1 / RFU, PANK3 / Fold change vs veh, PANK3 / RFU, SH3YL1 / Fold change vs veh, SH3YL1 / RFU, ZEB2 / Fold change vs veh, ZEB2 / RFU, NRIP1 / Fold change vs veh, NRIP1 / RFU, PTTG1IP / Fold change vs veh, PTTG1IP / RFU, CAPN2 / Fold change vs veh, CAPN2 / RFU, MED14 / Fold change vs veh, MED14 / RFU, SNORA58 / Fold change vs veh, SNORA58 / RFU, C1orf63 / Fold change vs veh, C1orf63 / RFU, LRRFIP1 / Fold change vs veh, LRRFIP1 / RFU, NDUFAF7 / Fold change vs veh, NDUFAF7 / RFU, SLC12A2 / Fold change vs veh, SLC12A2 / RFU, IBTK / Fold change vs veh, IBTK / RFU, ESF1 / Fold change vs veh, ESF1 / Fold change vs veh, TMEM50B / RFU, TAOK1 / Fold change vs veh, TAOK1 / RFU, ACBD3 / Fold change vs veh, ACBD3 / RFU, TMA16 / Fold change vs veh, TMA16 / RFU, RWDD3 / Fold change vs veh, RWDD3 / RFU, BCAT1 / Fold change vs veh, BCAT1 / RFU, EDEM3 / Fold change vs veh, EDEM3 / RFU, TMEM33 / Fold change vs veh, TMEM33 / RFU, WDR75 / Fold change vs veh, WDR75 / RFU, AHCTF1 / Fold change vs veh, AHCTF1 / RFU, TFRC / Fold change vs veh, TFRC / RFU, ZDHHC17 / Fold change vs veh, ZDHHC17 / RFU, NOM1 / Fold change vs veh, NOM1 / RFU, ARL8B / Fold change vs veh, ARL8B / RFU, ZBTB11 / Fold change vs veh, ZBTB11 / RFU, TAMM41 / Fold change vs veh, TAMM41 / RFU, KIAA1704 /// LOC100996395 / Fold change vs veh, KIAA1704 /// LOC100996395 / RFU, ING1 / Fold change vs veh, ING1 / RFU, TRMT61B / Fold change vs veh, TRMT61B / RFU, FUBP3 / Fold change vs veh, FUBP3 / RFU, TP53 / Fold change vs veh, TP53 / RFU, TNKS2 / Fold change vs veh, TNKS2 / RFU, ZFP14 / Fold change vs veh, ZFP14 / RFU, ACTR2 / Fold change vs veh, ACTR2 / RFU, PPP3R1 / Fold change vs veh, PPP3R1 / RFU, PIK3R1 / Fold change vs veh, PIK3R1 / RFU, HNRNPA1 / Fold change vs veh, HNRNPA1 / RFU, RNF170 / Fold change vs veh, RNF170 / RFU, ZNF28 / Fold change vs veh, ZNF28 / RFU, RNGTT / Fold change vs veh, RNGTT / RFU, OGT / Fold change vs veh, OGT / RFU, BRD1 / Fold change vs veh, BRD1 / RFU, MARS / Fold change vs veh, MARS / RFU, ZNF655 / Fold change vs veh, ZNF655 / RFU, FAHD1 / Fold change vs veh, FAHD1 / RFU, BDP1 / Fold change vs veh, BDP1 / RFU, LRRCC1 / Fold change vs veh, LRRCC1 / RFU, ARID1A / Fold change vs veh, ARID1A / RFU, ZNF146 / Fold change vs veh, ZNF146 / RFU, ZNF330 / Fold change vs veh, ZNF330 / RFU, GPN3 / Fold change vs veh, GPN3 / RFU, C9orf123 / Fold change vs veh, C9orf123 / RFU, N4BP2L2 / Fold change vs veh, N4BP2L2 / RFU, ARFIP1 / Fold change vs veh, ARFIP1 / RFU, FAM179B / Fold change vs veh, FAM179B / RFU, BCL10 / Fold change vs veh, BCL10 / RFU, UHRF1BP1L / Fold change vs veh, UHRF1BP1L / RFU, BET1 / Fold change vs veh, BET1 / RFU, CNOT2 / Fold change vs veh, CNOT2 / RFU, ZNF268 / Fold change vs veh, ZNF268 / Fold change vs veh, ZNF507 / RFU, DGCR2 / Fold change vs veh, DGCR2 / RFU, WDSUB1 / Fold change vs veh, WDSUB1 / Fold change vs veh, HSP90B1 /// MIR3652 / RFU, ADSS / Fold change vs veh, ADSS / RFU, GK / Fold change vs veh, GK / RFU, ZNF148 / Fold change vs veh, ZNF148 / RFU, TAF9 / Fold change vs veh, TAF9 / RFU, SLC1A5 / Fold change vs veh, SLC1A5 / RFU, SLMO2 / Fold change vs veh, SLMO2 / RFU, ABCC4 / Fold change vs veh, ABCC4 / RFU, LOC101060439 /// RAP1B / Fold change vs veh, LOC101060439 /// RAP1B / RFU, RFX7 / Fold change vs veh, RFX7 / RFU, GTPBP10 / Fold change vs veh, GTPBP10 / RFU, CNEP1R1 / Fold change vs veh, CNEP1R1 / RFU, BIVM-ERCC5 /// ERCC5 / Fold change vs veh, BIVM-ERCC5 /// ERCC5 / RFU, ILF3 / Fold change vs veh, ILF3 / RFU 11762660_at / Fold change /veh 11762660_at / RFU VCAN (11757783_s_at) / Fold change /veh VCAN (11757783_s_at) / RFU DDX43 (11728927_at) / Fold change /veh DDX43 (11728927_at) / RFU KRT8 (11758188_x_at) / Fold change /veh KRT8 (11758188_x_at) / RFU NKD1 (11759106_at) / Fold change /veh NKD1 (11759106_at) / RFU SRD5A1 (11742802_a_at) / Fold change /veh SRD5A1 (11742802_a_at) / RFU TPSAB1 /// TPSB2 (11721975_s_at) / Fold change /veh TPSAB1 /// TPSB2 (11721975_s_at) / RFU GSTM3 (11746129_a_at) / Fold change /veh GSTM3 (11746129_a_at) / RFU IL23R (11737362_x_at) / Fold change /veh IL23R (11737362_x_at) / RFU TMEM51 (11727254_a_at) / Fold change /veh TMEM51 (11727254_a_at) / RFU PIWIL2 (11732686_x_at) / Fold change /veh PIWIL2 (11732686_x_at) / RFU ORM1 (11744905_x_at) / Fold change /veh ORM1 (11744905_x_at) / RFU CCDC152 (11743942_at) / Fold change /veh CCDC152 (11743942_at) / RFU ECM1 (11717891_a_at) / Fold change /veh ECM1 (11717891_a_at) / RFU IL23R (11748794_a_at) / Fold change /veh IL23R (11748794_a_at) / RFU TNFAIP8L3 (11732012_x_at) / Fold change /veh TNFAIP8L3 (11732012_x_at) / RFU MBOAT4 (11741988_at) / Fold change /veh MBOAT4 (11741988_at) / RFU 11764193_at / Fold change /veh 11764193_at / RFU TMEM53 (11763286_at) / Fold change /veh TMEM53 (11763286_at) / RFU MAGEB2 (11727129_at) / Fold change /veh MAGEB2 (11727129_at) / RFU TMEM200A (11744735_a_at) / Fold change /veh TMEM200A (11744735_a_at) / RFU CCDC152 (11751479_a_at) / Fold change /veh CCDC152 (11751479_a_at) / RFU FAM211A (11726209_a_at) / Fold change /veh FAM211A (11726209_a_at) / RFU RGS16 (11746705_a_at) / Fold change /veh RGS16 (11746705_a_at) / RFU VCAN (11755009_s_at) / Fold change /veh VCAN (11755009_s_at) / RFU RHOB (11743442_s_at) / Fold change /veh RHOB (11743442_s_at) / RFU RGS16 (11720943_a_at) / Fold change /veh RGS16 (11720943_a_at) / RFU RGS16 (11720944_at) / Fold change /veh RGS16 (11720944_at) / RFU, VPS4B / Fold change vs veh, VPS4B / RFU, CREB1 / Fold change vs veh, CREB1 / RFU, DNAJC13 / Fold change vs veh, DNAJC13 / RFU, GNAQ / Fold change vs veh, GNAQ / RFU, CDK5R1 / Fold change vs veh, CDK5R1 / RFU, ZRANB3 / Fold change vs veh, ZRANB3 / RFU, CUL4A / Fold change vs veh, CUL4A / RFU, CCNY / Fold change vs veh, CCNY / RFU, UFL1 / Fold change vs veh, UFL1 / RFU, COG3 / Fold change vs veh, COG3 / RFU, DIAPH2 / Fold change vs veh, DIAPH2 / RFU, SKA2 / Fold change vs veh, SKA2 / RFU, AFF3 / Fold change vs veh, AFF3 / RFU, LMF1 / Fold change vs veh, LMF1 / RFU, IPO11 / Fold change vs veh, IPO11 / RFU, DFFB / Fold change vs veh, DFFB / RFU, FOXP1 / Fold change vs veh, FOXP1 / RFU, CARD8 / Fold change vs veh, CARD8 / RFU, STRN3 / Fold change vs veh, STRN3 / RFU, ADK / Fold change vs veh, ADK / RFU, RASSF2 / Fold change vs veh, RASSF2 / RFU, WIPF1 / Fold change vs veh, WIPF1 / RFU, LARP1B / Fold change vs veh, LARP1B / RFU, RASA1 / Fold change vs veh, RASA1 / RFU, RB1 / Fold change vs veh, RB1 / RFU, PPFIA1 / Fold change vs veh, PPFIA1 / RFU, MAT2A / Fold change vs veh, MAT2A / RFU, CCT5 / Fold change vs veh, CCT5 / RFU, WDR92 / Fold change vs veh, WDR92 / RFU, CUX1 / Fold change vs veh, CUX1 / RFU, TTC7A / Fold change vs veh, TTC7A / RFU, TMEM135 / Fold change vs veh, TMEM135 / RFU, DEPTOR / Fold change vs veh, DEPTOR / RFU, CPM / Fold change vs veh, CPM / RFU, DNAJB6 / Fold change vs veh, DNAJB6 / RFU, CACNA2D3 / Fold change vs veh, CACNA2D3 / RFU, DTX4 / Fold change vs veh, DTX4 / RFU, TFCP2 / Fold change vs veh, TFCP2 / RFU, GMCL1 /// GMCL1P1 / Fold change vs veh, GMCL1 /// GMCL1P1 / RFU, AEBP2 / Fold change vs veh, AEBP2 / RFU, SNHG1 /// SNORD22 /// SNORD25 /// SNORD26 /// SNORD27 /// SNORD28 /// SNORD29 /// SNORD31 / Fold change vs veh, SNHG1 /// SNORD22 /// SNORD25 /// SNORD26 /// SNORD27 /// SNORD28 /// SNORD29 /// SNORD31 / Fold change (Aza/veh), C12orf56 (ProbeSet 11735607_a_at) / Fold change (ACY-1035/veh), C12orf56 (ProbeSet 11735607_a_at) / Fold change (Aza/veh), FGFR1OP (ProbeSet 11751329_s_at) / Fold change (ACY-1035/veh), FGFR1OP (ProbeSet 11751329_s_at) / Fold change (Aza/veh), VPS36 (ProbeSet 11739960_a_at) / Fold change (ACY-1035/veh), VPS36 (ProbeSet 11739960_a_at) / RFU SYPL1 (11715823_x_at) / Fold change /veh SYPL1 (11715823_x_at) / RFU IGFBP7 (11715501_s_at) / Fold change /veh IGFBP7 (11715501_s_at) / RFU REEP3 (11722064_at) / Fold change /veh REEP3 (11722064_at) / RFU IGLL1 (11728026_x_at) / Fold change /veh IGLL1 (11728026_x_at): dose or concentration left out as unconfirmed
Conditions: MV-4-11 cells, 48 hours

For `Nc1ccc(-c2cccs2)cc1NC(=O)c1ccc2c(c1)cc(C1CC1)n2CCN1CCOCC1` [ACY-1035], the “RFU IGFBP7 (11715501_s_at)” value was 134.15 RFU.

Source: article PMC5218480 (PLoS ONE, 2017)
